Assay results: patent US11641856B2 (SMITH & NEPHEW, INC., priority 2015, dated 2023)

System: S. aureus biofilm
Assay: In-vitro S. aureus biofilm model, treatment with oils of various polarity
Format: cell-based
Conditions: oils with log P within vs outside 0.5 to 2.0

Row | Molecule | antibacterial activity against biofilms (log reduction of bacteria vs. moist control, FIG. 1)
1 | diethyl acetate | did not exhibit very much antimicrobial activity against biofilms
2 | CCCCCCCC/C=C\CCCCCCCC(=O)O [oleic acid] | did not exhibit very much antimicrobial activity against biofilms
3 | CCOC(C)=O [Ethyl Acetate] | exhibited some antibacterial activity against biofilms
4 | O=C(O)c1ccccc1 [Benzoic Acid] | exhibited some antibacterial activity against biofilms
5 | CC(=O)OCC(COC(C)=O)OC(C)=O [glyceryl triacetate] | did not exhibit very much antimicrobial activity against biofilms
6 | CCCCCCCCCCCCCC(=O)OC(C)C [isopropyl myristate] | did not exhibit very much antimicrobial activity against biofilms
7 | CCOC(=O)c1cc(O)c(O)c(O)c1 [Ethyl Gallate] | exhibited some antibacterial activity against biofilms
8 | OCc1ccccc1 [Benzyl Alcohol] | exhibited some antibacterial activity against biofilms
9 | CCCOC(=O)c1cc(O)c(O)c(O)c1 [Propyl Gallate] | exhibited some antibacterial activity against biofilms
10 | Oc1cccc(O)c1 [Resorcinol] | exhibited some antibacterial activity against biofilms
11 | COC(=O)c1ccccc1 [methyl benzoate] | did not exhibit very much antimicrobial activity against biofilms
12 | CCCCCCCCCCCC(=O)OCC(O)CO (centres unmarked) [MONOMULS®, glyceryl monolaurate] | did not exhibit very much antimicrobial activity against biofilms

System: not given
Assay: not given
Conditions: reference standards with known log P values used for HPLC calibration; cited from earlier work

Row | Molecule | log P
13 | CCCCOC(=O)CCCCCCCCC(=O)OCCCC [Dibutyl sebacate] | 6.3
14 | O=C(C=Cc1ccccc1)OCc1ccccc1 [Benzyl cinnamate] | 4.06
